The assay addresses IRAK4 kinase (Homo sapiens (Human), UniProt Q9NWZ3). The assay can be described thus: IRAK4 kinase activity inhibition assay (ADP-Glo). Type of assay: biochemical. To be noted: 10 μM ATP, MBP substrate, 60 min at 25° C. The procedure:
IRAK4 kinase (purchased from Life Technologies, Cat. No.: PR5612U) was diluted to 2 folds of the final concentration (the final concentration is 0.76 ng/μL) with reaction buffer (40 mM Tris-HCl, pH 7.5; 20 mM MgCl2; 0.1 mg/mL BSA; 1 mM DTT), and added to a 384-well plate at 5 μL/well. The test drugs were 10-fold serial diluted from 10 μM to set six concentration points and added to the test wells of the 384-well plate at 2.5 μL/well. After incubation for 10 min at 25° C., 10 μM of ATP and […] of an enzyme reaction substrate, myelin basic protein MBP (purchased from SignalChem, Cat. No.: M42-51N) were added at 2.5 µL/well, and reacted at 25° C. for 60 minutes. After the reaction was completed, the kinase activity assay was performed using the ADP-Glo™ kinase assay kit (purchased from Promega, Cat. No.: V9102) according to the manufacture's instruction, i.e., 10 μL of ADP-Glo reaction reagent was first added and reacted at 25° C. for 40 minutes, 10 μL of the solution to be tested was taken and mixed with 10 μL of ADP-Glo detection reagent, and reacted at 25° C. for 30 minutes. The kinase activity was then detected, and the IC50 values of the test drugs were calculated.
Sequence of IRAK4 kinase (Q9NWZ3 whole entry): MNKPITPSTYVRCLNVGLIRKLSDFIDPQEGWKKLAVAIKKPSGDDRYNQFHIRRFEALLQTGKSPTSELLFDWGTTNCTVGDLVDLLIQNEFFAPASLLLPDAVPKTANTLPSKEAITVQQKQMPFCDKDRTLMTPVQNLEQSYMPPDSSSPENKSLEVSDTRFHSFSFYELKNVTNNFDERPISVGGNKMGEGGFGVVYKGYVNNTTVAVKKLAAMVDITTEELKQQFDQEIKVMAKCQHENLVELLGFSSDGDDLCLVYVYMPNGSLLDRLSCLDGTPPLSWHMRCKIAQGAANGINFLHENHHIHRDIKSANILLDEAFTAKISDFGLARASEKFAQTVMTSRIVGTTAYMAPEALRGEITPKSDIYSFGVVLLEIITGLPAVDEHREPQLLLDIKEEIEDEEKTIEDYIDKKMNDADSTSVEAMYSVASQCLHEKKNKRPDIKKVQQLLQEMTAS
In the case of `Cc1cc(Nc2nc(N[C@H]3CC[C@H](O)CC3)c3sccc3n2)sn1` [Compound 1, trans-4-((2-((3-methylisothiazol-5-yl)amino)thieno[3,2-d]pyrimidin-4-yl)amino)cyclohexanol], the half-inhibitory concentration (IC50) is ≤ 100 nM. The value for `Cc1cc(Nc2nc(NC3CC(O)C3)c3sccc3n2)sn1` (centres unmarked) [Compound 2] was ≤ 100 nM; that for `Cc1cc(Nc2nc(N[C@H]3C[C@@](C)(O)C3)c3sccc3n2)sn1` [Compound 3] was ≤ 100 nM. Under `Cc1cc(Nc2nc(N[C@H]3CC[C@@H](O)C3)c3sccc3n2)sn1` [Compound 4] stands ≤ 100 nM. `Cc1cc(Nc2nc(N[C@H]3CC[C@H](O)C3)c3sccc3n2)sn1` [Compound 5] returned an IC50 of 100 to 1000 nM.

In turn, `Cc1cc(Nc2nc(NC3CCC(C)(O)C3)c3sccc3n2)sn1` (centres unmarked) [Compound 6] returned an IC50 of 100 to 1000 nM. Regarding `Cc1cc(Nc2nc(N[C@@H]3C[C@H](CO)[C@@H](O)[C@H]3O)c3sccc3n2)sn1` [Compound 7], the IC50 is ≤ 100 nM. Under `Cc1cc(Nc2nc(N[C@H]3CC[C@@H](O)CC3)c3sccc3n2)sn1` [Compound 8] stands ≤ 100 nM. Under `Cc1cc(Nc2nc(NC3CCC(CO)CC3)c3sccc3n2)sn1` (centres unmarked) [Compound 10] stands ≤ 100 nM; under `Cc1cc(Nc2nc(NC3CCC(O)C(C)C3)c3sccc3n2)sn1` (centres unmarked) [Compound 11], 100 to 1000 nM; under `CCC1(O)CCC(Nc2nc(Nc3cc(C)ns3)nc3ccsc23)CC1` (centres unmarked) [Compound 12], 100 to 1000 nM. For the compound `Cc1cc(Nc2nc(NC3CCC(C(N)=O)CC3)c3sccc3n2)sn1` (centres unmarked) [Compound 13], the IC50 was 100 to 1000 nM.

Consider `Cc1cc(Nc2nc(N[C@@H]3CC[C@H](O)[C@@H](O)C3)c3sccc3n2)sn1` [Compound 14], for which the IC50 is ≤ 100 nM. The compound `Cc1cc(Nc2nc(O[C@H]3CC[C@H](O)CC3)c3sccc3n2)sn1` [Compound 15] had an IC50 of 100 to 1000 nM. As for `CO[C@H]1CC[C@H](Nc2nc(Nc3cc(C)ns3)nc3ccsc23)CC1` [Compound 16], the IC50 lay within 100 to 1000 nM. The value for `Cc1cc(Nc2nc(N[C@H]3CC[C@H](O)CC3)c3sccc3n2)on1` [Compound 17] was 100 to 1000 nM; that for `Cn1cc(Nc2nc(N[C@H]3CC[C@H](O)CC3)c3sccc3n2)cn1` [Compound 18] was ≤ 100 nM; that for `O[C@H]1CC[C@H](Nc2nc(Nc3cnoc3)nc3ccsc23)CC1` [Compound 19] was 100 to 1000 nM. On to `COc1cc(Nc2nc(N[C@@H]3C[C@H](CO)[C@@H](O)[C@H]3O)c3sccc3n2)ccn1` [Compound 20], for which the IC50 is ≤ 100 nM. Under `O[C@H]1CC[C@H](Nc2nc(Nc3ccncc3)nc3ccsc23)CC1` [Compound 21] stands 1000 to 10000 nM; under `Cc1cc(Nc2nc(N[C@H]3CC[C@](C)(O)CC3)c3sccc3n2)cc(C)n1` [Compound 22], 100 to 1000 nM; under `COc1cc(Nc2nc(N[C@H]3CC[C@](C)(O)CC3)c3sccc3n2)ccn1` [Compound 23], 100 to 1000 nM.

`Cc1cc(Nc2nc(N(C)C3CCC(C)(O)CC3)c3sccc3n2)sn1` (centres unmarked) [Compound 24, 1-methyl-4-(methyl(2-((3-methylisothiazol-5-yl)amino)thieno[3,2-d]pyrimidin-4-yl)amino)cyclohexanol] registered an IC50 of 1000 to 10000 nM. Under `O[C@H]1CC[C@H](Nc2nc(Nc3cnn(-c4ccccc4)c3)nc3ccsc23)CC1` [Compound 25, trans-4-((2-((1-phenyl-1H-pyrazol-4-yl)amino)thieno[3,2-d]pyrimidin-4-yl)amino)cyclohexanol] stands ≤ 100 nM.

For `OCCn1cc(Nc2nc(N[C@H]3CC[C@H](O)CC3)c3sccc3n2)cn1` [Compound 26], the IC50 was ≤ 100 nM. Under `O[C@H]1CC[C@H](Nc2nc(Nc3cnn(C4CCCC4)c3)nc3ccsc23)CC1` [Compound 27] stands 100 to 1000 nM; under `O[C@H]1CC[C@H](Nc2nc(Nc3cnn(C4CCCNC4)c3)nc3ccsc23)CC1` (some centres unmarked) [Compound 28], ≤ 100 nM. As to `Oc1ccccc1-n1cc(Nc2nc(N[C@H]3CC[C@H](O)CC3)c3sccc3n2)cn1` [Compound 29], the IC50 was 100 to 1000 nM. Compound `Oc1cccc(-n2cc(Nc3nc(N[C@H]4CC[C@H](O)CC4)c4sccc4n3)cn2)c1` [Compound 30] had an IC50 of 100 to 1000 nM. In turn, `Oc1ccc(-n2cc(Nc3nc(N[C@H]4CC[C@H](O)CC4)c4sccc4n3)cn2)cc1` [Compound 31] had an IC50 of 100 to 1000 nM. In the case of `O[C@H]1CC[C@H](Nc2nc(Nc3cnn(-c4cccc(N5CCOCC5)c4)c3)nc3ccsc23)CC1` [Compound 34], the IC50 lay in the range of 100 to 1000 nM.

`O[C@H]1CC[C@H](Nc2nc(Nc3cnn(-c4ccc(N5CCOCC5)cc4)c3)nc3ccsc23)CC1` [Compound 35] yielded an IC50 of 100 to 1000 nM. `O[C@H]1CC[C@H](Nc2nc(Nc3cnn(-c4ccccn4)c3)nc3ccsc23)CC1` [Compound 36] showed an IC50 of 100 to 1000 nM. Consider `O[C@H]1CC[C@H](Nc2nc(Nc3cnn(-c4cccnc4)c3)nc3ccsc23)CC1` [Compound 37], for which the IC50 was ≤ 100 nM. Under `O[C@H]1CC[C@H](Nc2nc(Nc3cnn(-c4ccncc4)c3)nc3ccsc23)CC1` [Compound 38] stands ≤ 100 nM; under `O[C@H]1CC[C@H](Nc2nc(Nc3cnn(-c4ccncn4)c3)nc3ccsc23)CC1` [Compound 39], 100 to 1000 nM. The value for `O[C@H]1CC[C@H](Nc2nc(Nc3cnn(-c4cncnc4)c3)nc3ccsc23)CC1` [Compound 40] was 100 to 1000 nM. The compound `Cc1ncccc1-n1cc(Nc2nc(N[C@H]3CC[C@H](O)CC3)c3sccc3n2)cn1` [Compound 41] yielded an IC50 of 1000 to 10000 nM. For `Cc1cncc(-n2cc(Nc3nc(N[C@H]4CC[C@H](O)CC4)c4sccc4n3)cn2)c1` [Compound 42], the IC50 was in the range of 100 to 1000 nM. The value for `Cc1cc(-n2cc(Nc3nc(N[C@H]4CC[C@H](O)CC4)c4sccc4n3)cn2)ccn1` [Compound 43] was 100 to 1000 nM. Under `C[C@]1(O)CC[C@H](Nc2nc(Nc3cnn(C(=O)CC4CCNCC4)c3)nc3ccsc23)CC1` [Compound 44] stands 100 to 1000 nM; under `CN1CCN(C(=O)c2cc(Nc3nc(N[C@H]4CC[C@H](O)CC4)c4sccc4n3)sn2)CC1` [Compound 45, (5-((4-((trans-4-hydroxycyclohexyl)amino)thieno[3,2-d]pyrimidin-2-yl)amino)isothiazol-3-yl)(4-methylpiperazin-1-yl)methanone], 100 to 1000 nM. As for `COCCNC(=O)c1csc(Nc2nc(N[C@H]3CC[C@](C)(O)CC3)c3sccc3n2)c1` [Compound 46], the IC50 is 100 to 1000 nM. The value for `C[C@]1(O)CC[C@H](Nc2nc(Nc3cc(C(=O)N[C@H]4CCNC4)cs3)nc3ccsc23)CC1` [Compound 47] was ≤ 100 nM. Consider `C[C@]1(O)CC[C@H](Nc2nc(Nc3cc(C(=O)N[C@@H]4CCNC4)cs3)nc3ccsc23)CC1` [Compound 48], for which the IC50 was ≤ 100 nM. Under `C[C@]1(O)CC[C@H](Nc2nc(Nc3cc(C(=O)NC4CCNCC4)cs3)nc3ccsc23)CC1` [Compound 49] stands 100 to 1000 nM. The compound `CN1CCN(C(=O)c2csc(Nc3nc(N[C@H]4CC[C@](C)(O)CC4)c4sccc4n3)c2)CC1` [Compound 50] showed an IC50 of 100 to 1000 nM. The value for `C[C@]1(O)CC[C@H](Nc2nc(Nc3cc(C(=O)NC4CCNCC4)n[nH]3)nc3ccsc23)CC1` [Compound 51] was 1000 to 10000 nM; that for `C[C@]1(O)CC[C@H](Nc2nc(Nc3cc(C(=O)NCCCO)ns3)nc3ccsc23)CC1` [Compound 52] was ≤ 100 nM. The value for `COCCNC(=O)c1cc(Nc2nc(N[C@H]3CC[C@](C)(O)CC3)c3sccc3n2)sn1` [Compound 53] was 100 to 1000 nM; that for `C[C@]1(O)CC[C@H](Nc2nc(Nc3cc(C(=O)NCC4CCNCC4)ns3)nc3ccsc23)CC1` [Compound 54] was ≤ 100 nM. As for `C[C@]1(O)CC[C@H](Nc2nc(Nc3cc(C(=O)N[C@@H]4CCNC4)ns3)nc3ccsc23)CC1` [Compound 55], the IC50 is ≤ 100 nM. The value for `C[C@]1(O)CC[C@H](Nc2nc(Nc3cc(C(=O)N[C@@H]4CCCNC4)ns3)nc3ccsc23)CC1` [Compound 56] was ≤ 100 nM; that for `C[C@]1(O)CC[C@H](Nc2nc(Nc3cc(C(=O)NC4CCOCC4)ns3)nc3ccsc23)CC1` [Compound 57] was ≤ 100 nM. Consider `C[C@]1(O)CC[C@H](Nc2nc(Nc3cc(C(=O)NC4CCNCC4)ns3)nc3ccsc23)CC1` [Compound 58], for which the IC50 was ≤ 100 nM. Under `CN1CCC(NC(=O)c2cc(Nc3nc(N[C@H]4CC[C@](C)(O)CC4)c4sccc4n3)sn2)CC1` [Compound 59] stands ≤ 100 nM; under `CC(=O)N1CCC(NC(=O)c2cc(Nc3nc(N[C@H]4CC[C@](C)(O)CC4)c4sccc4n3)sn2)CC1` [Compound 60], 100 to 1000 nM. The value for `C[C@]1(O)CC[C@H](Nc2nc(Nc3cc(C(=O)Nc4ccccc4)ns3)nc3ccsc23)CC1` [Compound 61] was 1000 to 10000 nM; that for `C[C@]1(O)CC[C@H](Nc2nc(Nc3cc(C(=O)Nc4cccnc4)ns3)nc3ccsc23)CC1` [Compound 62] was 100 to 1000 nM. Under `C[C@]1(O)CC[C@H](Nc2nc(Nc3cc(C(=O)Nc4ccncc4)ns3)nc3ccsc23)CC1` [Compound 63] stands 100 to 1000 nM. Compound `C[C@]1(O)CC[C@H](Nc2nc(Nc3ccc(C(=O)N[C@@H]4CCNC4)cc3)nc3ccsc23)CC1` [Compound 64] returned an IC50 of 100 to 1000 nM.

Take `C[C@]1(O)CC[C@H](Nc2nc(Nc3cccc(C(=O)NC4CCNCC4)c3)nc3ccsc23)CC1` [Compound 65]: the IC50 was in the range of 100 to 1000 nM.

In general, IC50 refers to the concentration needed to halve the response being measured. The low end stands for greater potency in that assay, the high end for weaker potency in that assay.

For the origin of these results see US10988482B2, “IRAK4 inhibitor and use thereof” (BEIJING HANMI PHARMACEUTICAL CO., LTD., priority 2015, dated 2021).
